Tests used:
Assay type in all cases: cell-based
[1] = tested on: human ovarian cancer cell line SKOV3; experiment: tumor cell death (cytotoxicity), Annexin V-FITC/PI flow cytometry; conditions: treated alone; carboplatin 20 μM or 1×10^5 parental cells
Procedure: (§1) The cells are subsequently incubated for 24 hours. Each type of the tumor cells is divided into six groups. In a control, the tumor cells are untreated. In a group 1, the tumor cells are treated with the chemotherapy drug. In a group 2, the tumor cells are treated with the parental primary NK cell. In a group 3, the tumor cells are treated with the parental primary NK cell and the chemotherapy drug. In the groups 2 and 3, the number of the parental primary NK cell treated is 1×10^5 cells. In a group 4, the tumor cells are treated with the Example 1. In a group 5, the tumor cells are treated with the Example 1 and the chemotherapy drug. […] The treated cells are stained with Annexin V-FITC and propidium iodide (PI), and the apoptosis and the death of the tumor cells are detected by the flow cytometry. The sum of the percentage of cells stained with Annexin V-FITC and/or PI (that is the percentage of cells in the first quadrant, the second quadrant, and the fourth quadrant of the bivariate flow cytometry scatter plot) are calculated to obtain the cytotoxicity. The results of the cytotoxicity are counted after the three independent trials in each group.
(§2) The cells are subsequently incubated for 24 hours. […] The treated cells are stained with Annexin V-FITC and propidium iodide (PI), and the apoptosis and the death of the tumor cells are detected by the flow cytometry. […]

[2] = tested on: HLA-G on the plasma membrane of the human ovarian cancer cell line SKOV3; experiment: HLA-G expression level of tumor cells by flow cytometry; conditions: 20 μM, 48 hours, compared to untreated control, p<0.001
[3] = tested on: human breast cancer cell line MDA-MB-231; experiment: tumor cell death (cytotoxicity), Annexin V-FITC/PI flow cytometry; conditions: treated alone; doxorubicin 200 nM or 1×10^5 parental cells
Procedure: (§3) The cells are subsequently incubated for 24 hours. […] In a control, the tumor cells are untreated.
as §3

[4] = tested on: HLA-G on the plasma membrane of the human breast cancer cell line MDA-MB-231; experiment: HLA-G expression level of tumor cells by flow cytometry; conditions: 200 nM, 48 hours, compared to untreated control, p<0.001
Procedure: First, the human breast cancer cell line MDA-MB-231, the human malignant brain tumor cell line DBTRG, the human pancreatic cancer cell line AsPC1 and the human ovarian cancer cell line SKOV3 are seeded in a 6-well plate at a density of 2×10^5 cells/well. The cells are subsequently incubated for 24 hours. Each type of the tumor cells is divided into two groups. In a control, the tumor cells are untreated. In an experiment group, the tumor cells are treated with the chemotherapy drug for 48 hours. […] Then, the HLA-G expression level of the tumor cells are detected by flow cytometry.

[5] = tested on: human pancreatic cancer cell line AsPC1; experiment: tumor cell death (cytotoxicity), Annexin V-FITC/PI flow cytometry; conditions: treated alone; gemcitabine 20 μM or 1×10^5 parental cells
Procedure: as §1, §2

For N.N.O=C([O-])C1(C(=O)[O-])CCC1.[Pt+2] [carboplatin], the “death rate of SKOV3 compared to the control (in words)” value [1] was “increased, but there is no statistically significant differences compared to the control” and the “expression of HLA-G on the plasma membrane of SKOV3” value [2] was “increase the expression of HLA-G”.
COc1cccc2c1C(=O)c1c(O)c3c(c(O)c1C2=O)C[C@@](O)(C(=O)CO)C[C@@H]3O[C@H]1C[C@H](N)[C@H](O)[C@H](C)O1 [doxorubicin] was tested, and the “death rate of MDA-MB-231 compared to the control (in words)” value [3] was “increased, but there is no statistically significant difference compared to the control” and the “expression of HLA-G on the plasma membrane of MDA-MB-231” value [4] was “increase the expression of HLA-G”.
For Nc1ccn([C@@H]2O[C@H](CO)[C@@H](O)C2(F)F)c(=O)n1 [gemcitabine], the “death rate of AsPC1 compared to the control (in words)” value [5] was “increased, but there is no statistically significant difference compared to the control”.
